Test results: patent US10370366B2 (Flatley Discovery Lab, LLC, priority 2013, dated 2019)
pEC50: −log10 of the molar value.

Molecular target: T1, human F508del CFTR (Homo sapiens, UniProt P13569, DEL508-508)
T1 construct: expressed in transfected cells; host or cells: Fisher Rat Thyroid (FRT) cells
Assay: CFTR-YFP High Throughput Assay
Format: cell-based
Conditions: FRT cells expressing human F508del CFTR and YFP; for Emax: EMax normalized to the positive control, read-out: % Efficacy
Method in brief: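 FRT cells stably co-expressing human F508del CFTR and halide-sensitive YFP-H148Q/I152L; for correction, compound (2 nM-40 μM) incubated 24-26 h at 37° C, washed, then stimulated 60-120 min at RT with 20 μM forskolin plus 30 μM potentiator P3. Iodide-induced YFP quench (Ex 500/Em 540 nm) recorded; quench rates least-squares fitted.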

T1 sequence (P13569 with tags, fused parts or gaps DEL508-508): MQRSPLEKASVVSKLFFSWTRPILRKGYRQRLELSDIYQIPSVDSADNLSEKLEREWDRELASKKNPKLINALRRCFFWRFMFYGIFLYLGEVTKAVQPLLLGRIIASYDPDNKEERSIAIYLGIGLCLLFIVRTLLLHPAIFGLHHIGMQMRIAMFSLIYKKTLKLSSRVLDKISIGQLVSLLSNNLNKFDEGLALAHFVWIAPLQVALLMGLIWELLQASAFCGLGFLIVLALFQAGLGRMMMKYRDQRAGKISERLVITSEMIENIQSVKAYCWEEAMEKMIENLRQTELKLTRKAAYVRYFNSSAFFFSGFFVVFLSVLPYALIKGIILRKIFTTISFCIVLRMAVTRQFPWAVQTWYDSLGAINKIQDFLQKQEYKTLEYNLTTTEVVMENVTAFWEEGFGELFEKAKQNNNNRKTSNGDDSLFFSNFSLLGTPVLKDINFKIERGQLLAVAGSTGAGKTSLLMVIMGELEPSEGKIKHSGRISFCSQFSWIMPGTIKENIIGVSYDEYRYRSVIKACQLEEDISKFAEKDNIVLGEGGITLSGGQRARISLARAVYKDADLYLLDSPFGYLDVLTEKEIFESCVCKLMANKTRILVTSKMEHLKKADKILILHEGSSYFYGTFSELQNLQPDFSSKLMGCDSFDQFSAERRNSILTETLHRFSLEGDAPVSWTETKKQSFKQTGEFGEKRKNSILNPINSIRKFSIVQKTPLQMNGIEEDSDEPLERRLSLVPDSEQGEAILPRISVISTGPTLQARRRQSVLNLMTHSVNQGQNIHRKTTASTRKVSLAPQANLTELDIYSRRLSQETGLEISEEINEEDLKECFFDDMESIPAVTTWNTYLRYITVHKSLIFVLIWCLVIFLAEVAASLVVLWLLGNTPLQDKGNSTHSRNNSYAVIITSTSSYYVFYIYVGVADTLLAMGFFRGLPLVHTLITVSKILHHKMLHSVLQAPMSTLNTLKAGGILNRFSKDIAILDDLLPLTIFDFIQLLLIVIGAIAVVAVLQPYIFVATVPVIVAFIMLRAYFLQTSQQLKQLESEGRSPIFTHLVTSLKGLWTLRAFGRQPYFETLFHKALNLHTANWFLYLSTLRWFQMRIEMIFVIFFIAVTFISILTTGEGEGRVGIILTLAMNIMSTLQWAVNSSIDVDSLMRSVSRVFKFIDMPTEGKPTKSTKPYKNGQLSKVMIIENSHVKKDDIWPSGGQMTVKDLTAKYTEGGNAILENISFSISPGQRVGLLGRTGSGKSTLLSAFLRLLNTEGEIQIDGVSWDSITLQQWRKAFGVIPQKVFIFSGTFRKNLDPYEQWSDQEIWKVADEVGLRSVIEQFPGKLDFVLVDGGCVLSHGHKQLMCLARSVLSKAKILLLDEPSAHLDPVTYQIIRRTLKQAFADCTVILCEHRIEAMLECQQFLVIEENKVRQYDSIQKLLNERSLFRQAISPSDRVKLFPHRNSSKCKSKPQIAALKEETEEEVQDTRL

Row | Structure (SMILES) | Emax [%] | pEC50
1 | CCN(CC)C(=O)c1nn(CC(O)COCc2ccccc2)c(=O)c2c1c1c(OC)cccc1n2C (stereo not shown) [Example 231, 3-(3-(benzyloxy)-2-hydroxypropyl)-N,N-diethyl-9-methoxy-5-methyl-4-oxo-4,5-dihydro-3H-pyridazino[4,5-b]indole-1-carboxamide] | 30 to 80 | > 5.00
2 | Cc1ccc(-n2nc(Cn3ccnc3)c3c4ccccc4n(C)c3c2=O)cc1 [Example 242, 1-((1H-imidazol-1-yl)methyl)-5-methyl-3-(p-tolyl)-3,5-dihydro-4H-pyridazino[4,5-b]indol-4-one] | 30 to 80 | < 4.70
3 | COc1ccc2c(-c3cccc(C#N)c3)nn(CC(=O)N(c3ccc4c(c3)OC(F)(F)O4)C(C)C)c(=O)c2c1 [Example 77, 2-(4-(3-cyanophenyl)-7-methoxy-1-oxophthalazin-2(1H)-yl)-N-(2,2-difluorobenzo[d][1,3]dioxol-5-yl)-N-isopropylacetamide] | > 80 | 4.70 to 5.00
4 | CCN(C(=O)Cn1nc(-c2cccnc2)c2ccccc2c1=O)c1ccc2c(c1)OC(F)(F)O2 [Example 24, N-(2,2-difluorobenzo[d][1, 3]dioxol-5-yl)-N-ethyl-2-(1-oxo-4-(pyridin-3-yl)phthalazin-2(1H)-yl)acetamide] | 30 to 80 | > 5.00
5 | CCc1ccc(N(CC)C(=O)Cn2nc(-c3cncnc3)c3ccccc3c2=O)cc1 [Example 7, N-ethyl-N-(4-ethylphenyl)-2-(1-oxo-4-(pyrimidin-5-yl)phthalazin-2(1H)-yl)acetamide] | 30 to 80 | < 4.70
6 | CCc1ccc(N(CC)C(=O)Cn2nc(Cc3cccnc3)c3cc(C)ccc3c2=O)cc1 [Example 29, N-ethyl-N-(4-ethylphenyl)-2-(6-methyl-1-oxo-4-(pyridin-3-ylmethyl)phthalazin-2(1H)-yl)acetamide] | 30 to 80 | 
7 | CCN(C(=O)c1nn(-c2ccccc2F)c(=O)c2c1c1ccccc1n2C)c1ccccc1 [Example 174, N-ethyl-3-(2-fluorophenyl)-5-methyl-4-oxo-N-phenyl-4,5-dihydro-3H-pyridazino[4,5-b]indole-1-carboxamide] | 30 to 80 | 
8 | Cc1nc2ccc(N(C(=O)Cn3nc(-c4cccc(Cl)c4)c4ccc(O)cc4c3=O)C3CC3)cc2o1 [Example 100, 2-(4-(3-chlorophenyl)-7-hydroxy-1-oxophthalazin-2(1H)-yl)-N-cyclopropyl-N-(2-methylbenzo[d]oxazol-6-yl)acetamide] |  | > 5.00
9 | CCN(C(=O)Cn1nc(C(=O)N(CC)c2ccccc2C#N)c2ccccc2c1=O)c1ccc2c(c1)OC(F)(F)O2 [Example 129, N-(2-cyanophenyl)-3-(2-((2,2-difluorobenzo[d][1,3]dioxol-5-yl)(ethyl)amino)-2-oxoethyl)-N-ethyl-4-oxo-3,4-dihydrophthalazine-1-carboxamide] | 30 to 80 | 4.70 to 5.00
10 | COc1ccc2c(c1)c1c(=O)n(CC(=O)N(C)c3ccc4nc(C)oc4c3)ncc1n2Cc1ccc(C#N)cc1 [Example 259, 2-(5-(4-cyanobenzyl)-8-methoxy-1-oxo-1,5-dihydro-2H-pyridazino[4,5-b]indol-2-yl)-N-methyl-N-(2-methylbenzo[d]oxazol-6-yl)acetamide] | > 80 | > 5.00
11 | CCc1ccc(N(CC)C(=O)Cn2nc(C(=O)N(CC)c3cccc(Cl)c3)c3c4ccccc4n(C)c3c2=O)cc1 [Example 203, N-(3-chlorophenyl)-N-ethyl-3-(2-(ethyl(4-ethylphenyl)amino)-2-oxoethyl)-5-methyl-4-oxo-4,5-dihydro-3H-pyridazino[4,5-b]indole-1-carboxamide] | 30 to 80 | 
12 | CCN(C(=O)Cn1ncc2c(c1=O)c1ccccc1n2CCCOC)c1ccc2c(c1)OC(F)(F)O2 [Example 137, N-(2,2-difluorobenzo[d][1,3]dioxol-5-yl)-N-ethyl-2-(5-(3-methoxypropyl)-1-oxo-1H-pyridazino[4,5-b]indol-2(5H)-yl)acetamide] | 30 to 80 | 
13 | CCN(C(=O)c1nn(-c2ccc(C)cc2)c(=O)c2c1c1cc(OC)ccc1n2C)c1ccccc1 [Example 187, N-ethyl-8-methoxy-5-methyl-4-oxo-N-phenyl-3-(p-tolyl)-4,5-dihydro-3H-pyridazino[4,5-b]indole-1-carboxamide] | 30 to 80 | < 4.70
14 | CCN(C(=O)Cn1nc(C(=O)Nc2ccccn2)c2ccccc2c1=O)c1ccc2c(c1)OC(F)(F)O2 [Example 126, 3-(2-((2,2-difluorobenzo[d][1,3]dioxol-5-yl)(ethyl)amino)-2-oxoethyl)-4-oxo-N-(pyridin-2-yl)-3,4-dihydrophthalazine-1-carboxamide] | 30 to 80 | > 5.00
15 | CCN(C(=O)c1nn(-c2ccc(Cl)cc2)c(=O)c2c1c1ccccc1n2C)c1ccccc1 [Example 178, 3-(4-chlorophenyl)-N-ethyl-5-methyl-4-oxo-N-phenyl-4,5-dihydro-3H-pyridazino[4,5-b]indole-1-carboxamide] | 30 to 80 | 
16 | Cc1nc2ccc(N(C)C(=O)Cn3nc(-c4cccc(C#N)c4)c4ccc(OC5CCOCC5)cc4c3=O)cc2o1 [Example 120, 2-(4-(3-cyanophenyl)-1-oxo-7-((tetrahydro-2H-pyran-4-yl)oxy)phthalazin-2(1H)-yl)-N-methyl-N-(2-methylbenzo[d]oxazol-6-yl)acetamide] | > 80 | > 5.00
17 | Cc1ccc(-n2nc(C(=O)N(c3ccccc3)C(C)C)c3c4ccccc4n(C)c3c2=O)cc1 [Example 152, N-isopropyl-5-methyl-4-oxo-N-phenyl-3-(p-tolyl)-4,5-dihydro-3H-pyridazino[4,5-b]indole-1-carboxamide] | 30 to 80 | 
18 | CCN(C(=O)c1nn(-c2ccc(OC)cc2)c(=O)c2c1c1ccccc1n2C)c1ccccc1 [Example 179, N-ethyl-3-(4-methoxyphenyl)-5-methyl-4-oxo-N-phenyl-4,5-dihydro-3H-pyridazino[4,5-b]indole-1-carboxamide] | 30 to 80 | < 4.70
19 | Cc1nc2ccc(N(C(=O)Cn3nc(-c4cccc(F)c4)c4ccc(O)cc4c3=O)C3CC3)cc2o1 [Example 99, N-cyclopropyl-2-(4-(3-fluorophenyl)-7-hydroxy-1-oxophthalazin-2(1H)-yl)-N-(2-methylbenzo[d]oxazol-6-yl)acetamide] | > 80 | 
20 | CCOC(=O)c1ccc2c(-c3cccc(F)c3)nn(CC(=O)N(C)c3ccc4nc(C)oc4c3)c(=O)c2c1 [Example 67, ethyl 1-(3-fluorophenyl)-3-(2-(methyl(2-methyl-benzo[d]oxazol-6-yl)amino)-2-oxoethyl)-4-oxo-3,4-dihydrophthalazine-6-carboxylate] | 30 to 80 | > 5.00

Further lines, results first:

Row | Emax [%] | pEC50 | Structure (SMILES)
21 | 30 to 80 |  | CCN(C(=O)c1nn(-c2ccccc2)c(=O)c2c1c1ccccc1n2C)c1ncnc2c1cnn2C [Example 164, N-ethyl-5-methyl-N-(1-methyl-1H-pyrazolo[3,4-d]pyrimidin-4-yl)-4-oxo-3-phenyl-4,5-dihydro-3H-pyridazino[4,5-b]indole-1-carboxamide]
22 | > 80 |  | CCN(C(=O)Cn1nc(Cc2cccnc2)c2ccc(C)cc2c1=O)c1ccc2c(c1)OC(F)(F)O2 [Example 45, N-(2,2-difluorobenzo[d][1,3]dioxol-5-yl)-N-ethyl-2-(7-methyl-1-oxo-4-(pyridin-3-ylmethyl)phthalazin-2(1H)-yl)acetamide]
23 | 10 to 30 |  | CCN(C(=O)c1nn(-c2nc3ccccc3n2C)c(=O)c2c1c1ccccc1n2C)c1ccccc1 [Example 173, N-ethyl-5-methyl-3-(1-methyl-1H-benzo[d]imidazol-2-yl)-4-oxo-N-phenyl-4,5-dihydro-3H-pyridazino[4,5-b]indole-1-carboxamide]
24 | 30 to 80 |  | CCN(C(=O)c1nn(-c2ccccc2)c(=O)c2c1c1ccccc1n2C)c1ccncn1 [Example 151, N-ethyl-5-methyl-4-oxo-3-phenyl-N-(pyrimidin-4-yl)-4,5-dihydro-3H-pyridazino[4,5-b]indole-1-carboxamide]
25 | 10 to 30 |  | CCc1ccc(N(CC)C(=O)Cn2nc(-c3ccc(O)cc3)c3ccccc3c2=O)cc1 [Example 2, N-ethyl-N-(4-ethylphenyl)-2-(4-(4-hydroxyphenyl)-1-oxophthalazin-2(1H)-yl)acetamide]
26 | 30 to 80 |  | CCN(CC)C(=O)c1nn(-c2ccc(C)cc2)c(=O)c2c1c1ccccc1n2C [Example 155, N, N-diethyl-5-methyl-4-oxo-3-(p-tolyl)-4,5-dihydro-3H-pyridazino[4,5-b]indole-1-carboxamide]
27 | 30 to 80 | > 5.00 | CCN(C(=O)Cn1ncc2c(c1=O)c1ccccc1n2Cc1ccc(C#N)c(F)c1)c1ccc2c(c1)OC(F)(F)O2 [Example 145, 2-(5-(4-cyano-3-fluorobenzyl)-1-oxo-1H-pyridazino[4,5-b]indol-2(5H)-yl)-N-(2,2-difluorobenzo[d][1,3]dioxol-5-yl)-N-ethylacetamide]
28 | 30 to 80 | > 5.00 | Cc1nc2ccc(N(C)C(=O)Cn3ncc4c(c3=O)c3ccccc3n4Cc3ccc(F)cc3)cc2o1 [Example 148, 2-(5-(4-fluorobenzyl)-1-oxo-1,5-dihydro-2H-pyridazino[4,5-b]indol-2-yl)-N-methyl-N-(2-methylbenzo[d]oxazol-6-yl)acetamide]
29 | 10 to 30 | < 4.70 | CCN(C(=O)Cn1ncc2c(c1=O)c1ccccc1n2CCC#N)c1ccc2c(c1)OC(F)(F)O2 [Example 138, 2-(5-(2-cyanoethyl)-1-oxo-1H-pyridazino[4,5-b]indol-2(5H)-yl)-N-(2,2-difluorobenzo[d][1,3]dioxol-5-yl)-N-ethylacetamide]
30 | 30 to 80 | > 5.00 | CCN(C(=O)c1nn(C)c(=O)c2c1c1ccccc1n2C)c1ccccc1 [Example 207, N-ethyl-3,5-dimethyl-4-oxo-N-phenyl-4,5-dihydro-3H-pyridazino[4,5-b]indole-1-carboxamide]
